Some test systems named below: OVCAR-5 ovarian; HCT-15 colon; UO-31 renal; SF-539 CNS; MDA-MB-435; RXF 393 renal; EKVX NSCLC; HOP-62 NSCLC; DU-145 prostate; A549 NSCLC.
Assay in all cases: DTP human tumour cell line panel, 48 h

Structures are written as SMILES. “And” between values parts separate entries of the source, which are not always exact repeats. Identical values can stand only once.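 Protocol summary: plate cells (96-well), add compound at 5 concentrations, incubate 48 h, interpolate endpoints linearly. Abbreviation: GI50, concentration required for 50% inhibition of growth. The concentration for full growth arrest is given as TGI.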

With `COc1ccc(/C=C2\CCC(C)(CN(C)C)C2=O)cc1Br` (stereo not drawn), the TGI in the experiment with OVCAR-5 ovarian is > 100 µM; in the experiment with HCT-15 colon it was 32.2 µM; in the experiment on UO-31 renal it was 33.3 µM; in the experiment on SF-539 CNS it was 43.5 µM; with MDA-MB-435, 44 µM; with RXF 393 renal, 35.7 µM. In addition, the TGI was 49.3 µM with EKVX NSCLC, 97 µM in the experiment on HOP-62 NSCLC, > 100 µM with DU-145 prostate and > 100 µM with A549 NSCLC.

For the molecule `Nc1[nH]c(=S)[nH]c(=O)c1N=Nc1c(Br)cc(S(N)(=O)=O)cc1Br`, the TGI in the experiment on OVCAR-5 ovarian, with HCT-15 colon, with UO-31 renal, in the experiment on SF-539 CNS, in the experiment with MDA-MB-435 and in the experiment on RXF 393 renal was > 100 µM in each case. Further, the TGI with EKVX NSCLC, in the experiment with HOP-62 NSCLC, in the experiment with DU-145 prostate and in the experiment on A549 NSCLC was > 100 µM throughout.

Consider `Cc1c(-c2c(F)cc(C(N)=O)c3[nH]c4c(c23)CC[C@H](C(C)(C)O)C4)cccc1-n1c(=O)c2cccc(F)c2n(C)c1=O`, for which the GI50 in the experiment with OVCAR-5 ovarian was 2.83 µM; in the experiment on HCT-15 colon, 2.7 µM; in the experiment on UO-31 renal it was 1.01 µM; in the experiment with SF-539 CNS, 4.78 µM; with MDA-MB-435, 3.81 µM; with RXF 393 renal, 1.61 µM. Further, the GI50 in the experiment with EKVX NSCLC is 1.95 µM; in the experiment with HOP-62 NSCLC, 3.39 µM; in the experiment with DU-145 prostate it was 5.63 µM; in the experiment on A549 NSCLC, 2.05 µM. Further, the concentration for total growth inhibition (TGI) in the experiment on OVCAR-5 ovarian was > 100 µM; in the experiment with HCT-15 colon it was > 100 µM; in the experiment with UO-31 renal it was 5.59 µM; in the experiment on SF-539 CNS, 33.4 µM; with MDA-MB-435, > 100 µM; in the experiment with RXF 393 renal it was 5.31 µM. For the same molecule, the TGI in the experiment with EKVX NSCLC, in the experiment on HOP-62 NSCLC, in the experiment with DU-145 prostate and in the experiment on A549 NSCLC was > 100 µM throughout.

In the case of `Cc1ccccc1N=C(c1ccccc1)C1C(=O)c2ccccc2C1=O`, the GI50 was 24.6 µM in the experiment on OVCAR-5 ovarian; 11.3 µM in the experiment on HCT-15 colon; 4.14 µM with UO-31 renal; 12.1 µM with SF-539 CNS; 3.44 µM with MDA-MB-435; 7.37 µM in the experiment with RXF 393 renal. The GI50 in the experiment on EKVX NSCLC is 22.2 µM; in the experiment with HOP-62 NSCLC, 18.2 µM; with DU-145 prostate it was 22.4 µM; in the experiment with A549 NSCLC, 12.3 µM. The TGI with OVCAR-5 ovarian was > 100 µM; in the experiment with HCT-15 colon, 73 µM; in the experiment on UO-31 renal, 47.4 µM; in the experiment on SF-539 CNS, > 100 µM; in the experiment with MDA-MB-435, 14.8 µM; in the experiment on RXF 393 renal, > 100 µM. Also, the TGI was 87.6 µM in the experiment with EKVX NSCLC, 63.9 µM with HOP-62 NSCLC, 69.6 µM in the experiment on DU-145 prostate and > 100 µM in the experiment on A549 NSCLC.

In the case of `O=[N+]([O-])c1ccc(NC(c2ccccc2)c2ccc3cccnc3c2O)cc1` (stereo not drawn), the GI50 in the experiment on OVCAR-5 ovarian is 1.77 µM; in the experiment on HCT-15 colon it was 0.326 µM; with UO-31 renal, 0.297 µM; in the experiment with SF-539 CNS, 0.499 µM; in the experiment on MDA-MB-435, 0.422 µM; with RXF 393 renal, 0.698 µM. For the same molecule, the GI50 was 0.393 µM in the experiment on EKVX NSCLC, 0.537 µM with HOP-62 NSCLC, 0.483 µM in the experiment on DU-145 prostate and 0.878 µM in the experiment on A549 NSCLC. For the same molecule, the TGI in the experiment with OVCAR-5 ovarian was > 100 µM; in the experiment on HCT-15 colon it was > 100 µM; in the experiment with UO-31 renal, > 31.4 µM; in the experiment with SF-539 CNS, > 31.9 µM; with MDA-MB-435, > 100 µM; with RXF 393 renal, > 100 µM. Besides, the total growth inhibition concentration (TGI) in the experiment with EKVX NSCLC, in the experiment with HOP-62 NSCLC, in the experiment with DU-145 prostate and with A549 NSCLC was > 100 µM in each case.

`Cc1cc(C2CC(O)C(CO)O2)c(Br)cc1Br` (stereo not drawn): the GI50 in the experiment with OVCAR-5 ovarian, with HCT-15 colon, with UO-31 renal, with SF-539 CNS, in the experiment on MDA-MB-435 and with RXF 393 renal was > 100 µM in each case. Besides, the GI50 in the experiment with EKVX NSCLC was 84.5 µM; in the experiment on HOP-62 NSCLC, > 100 µM; in the experiment with DU-145 prostate it was > 100 µM; in the experiment with A549 NSCLC, > 100 µM. In addition, the TGI in the experiment on OVCAR-5 ovarian, in the experiment on HCT-15 colon, in the experiment on UO-31 renal, in the experiment on SF-539 CNS, with MDA-MB-435 and in the experiment with RXF 393 renal was > 100 µM each time. Moreover, the TGI in the experiment on EKVX NSCLC, in the experiment on HOP-62 NSCLC, in the experiment with DU-145 prostate and in the experiment with A549 NSCLC was > 100 µM each time.

Regarding `OCC1OC(N2CCN(C3OC(CO)C(O)C(O)C3O)CC2)C(O)C(O)C1O` (stereo not drawn), the TGI in the experiment on OVCAR-5 ovarian, in the experiment on HCT-15 colon, in the experiment with UO-31 renal, in the experiment on SF-539 CNS, with MDA-MB-435 and in the experiment on RXF 393 renal was > 100 µM in each case. For the same molecule, the TGI in the experiment with EKVX NSCLC, in the experiment on HOP-62 NSCLC, in the experiment with DU-145 prostate and with A549 NSCLC was > 100 µM each time.

Turning to `COc1cc2cc(C(=O)Nc3ccccc3)c(N)nc2cc1OC`, the GI50 was > 100 µM in the experiment with OVCAR-5 ovarian; 31.3 µM in the experiment with HCT-15 colon; 25.7 µM in the experiment on UO-31 renal; 71.6 µM in the experiment with SF-539 CNS; 48.7 µM in the experiment on MDA-MB-435; 23.7 µM in the experiment on RXF 393 renal. The GI50 is 73.6 µM with EKVX NSCLC, 62.6 µM in the experiment with HOP-62 NSCLC, 80.3 µM in the experiment with DU-145 prostate and 63.1 µM in the experiment on A549 NSCLC. The TGI with OVCAR-5 ovarian, in the experiment on HCT-15 colon, in the experiment with UO-31 renal, in the experiment with SF-539 CNS, with MDA-MB-435 and in the experiment on RXF 393 renal was > 100 µM in each case. Further, the TGI with EKVX NSCLC, in the experiment on HOP-62 NSCLC, in the experiment on DU-145 prostate and with A549 NSCLC was > 100 µM throughout.

For the molecule `Cc1cc(C(=O)NOCCO)c(Nc2ccc(I)cc2F)n(C)c1=O`, the GI50 in the experiment on OVCAR-5 ovarian is 0.00163 µM and < 0.0168 µM; in the experiment on HCT-15 colon, > 3.01 µM and 2.64 µM; with UO-31 renal, 0.0289 µM and < 0.045 µM; in the experiment on SF-539 CNS, > 38.5 µM; in the experiment with MDA-MB-435 it was 0.00458 µM and < 0.01 µM; in the experiment on RXF 393 renal, 0.0915 µM and 0.199 µM. The concentration for 50% growth inhibition (GI50) in the experiment with EKVX NSCLC was 0.0233 µM; in the experiment on DU-145 prostate, > 10 µM and 53.8 µM. The TGI was > 100 µM in the experiment on OVCAR-5 ovarian; > 100 µM in the experiment on HCT-15 colon; > 100 µM in the experiment on UO-31 renal; > 100 µM in the experiment with SF-539 CNS; > 100 µM in the experiment on MDA-MB-435; > 10 µM and 92.3 µM with RXF 393 renal. Moreover, the TGI in the experiment with EKVX NSCLC is > 10 µM; with HOP-62 NSCLC it was > 100 µM; with DU-145 prostate, > 100 µM; in the experiment on A549 NSCLC, > 100 µM.

What is called TGI is the concentration giving total growth inhibition. The GI50 is the concentration that inhibits growth by half.

For the origin of these results see PubChem BioAssay (NCI).
